The structures appear in SMILES notation.

In general, melting point refers to the temperature of the solid-liquid transition. As for `CC(C)(Cl)C(CO)=NO`, the melting point was in the range of 114 to 115 °C.
The figure for `Cc1ccc(-c2ccc(O)cc2)c(-c2ccc(OCCN3CCCCC3)cc2)n1` is 90 to 100 °C; for `Nc1ccc(C(O)c2ccccn2)cc1` (stereo not given) it is 139 to 140 °C; for `CNCc1ccc(-c2cc3c4c(ccn4C(=O)CNC3)c2)cc1` it is 178 to 180 °C.
As for `CCCCc1oc2ccccc2c1C(=O)c1cc(Br)c(OCC(=O)O)c(Br)c1`, the figure is 92 to 94 °C; as for `NC(=O)Nc1cccc2c1C(=O)c1c-2n[nH]c1-c1csc(Cl)c1`, more than 300 °C.
The figure for `CN(C)C=Cc1nc2ccc(F)cc2c(=O)n1-c1ccccc1Cl` is 210 to 211 °C; for `Cc1csc(N)c1C(=O)c1ccc(Cl)cc1` it is 148 to 150 °C; for `Cc1cccc(-c2nc(C)cc(NC3CCCCC3)n2)n1` it is 59.6 to 65 °C.
Compound `Cc1ccc2cccc(OCc3cccc([N+](=O)[O-])c3C)c2n1` displayed a melting point of 184 to 188 °C.
The figure for `Cc1cc(C(=O)NC2CC2)ccc1N1CCN(C(=O)OC(C)(C)C)CC1` is 111 to 115 °C; for `O=C(Nc1ccc(-n2nc(C(F)(F)F)cc2C(F)(F)F)cc1)c1ccc(Br)cc1Cl` it is 164 to 167 °C.
As for `OCCOc1cccc2ocnc12`, the figure is 47 to 49 °C.
The figure for `Fc1ccc(C(CN2CCOCC2)=C2SCCCS2)cc1` is 104 to 106 °C; for `CS(=O)(=O)OCCn1c(=NC(=O)C(F)(F)F)sc2cc(OC(F)(F)F)ccc21` it is 145 °C.
Consider `CCc1nc2cc(S(C)(=O)=O)c(Cl)cc2n1-c1ccc(CCNC(=O)NS(=O)(=O)c2ccc(C)cc2)cc1`, for which the melting point is 105 to 118 °C.
As for `CC(C)(O)COc1c(-c2ccc(S(C)(=O)=O)cc2)cnn(-c2ccc(Cl)c(Cl)c2)c1=O`, the figure is 108 to 110 °C; as for `O=C(O)C1=Cc2cc(Cl)ccc2N(Cc2ccc(Cl)cc2)C1C(F)(F)F` (stereo not given), 250 to 253 °C.
The figure for `Cc1nnc2n1-c1ccccc1C(c1ccccc1)=NC2NC(=O)Nc1ccc(Cl)cc1` (stereo not given) is 292 to 294 °C; for `COc1ccc2c(c1)C(=NO)c1c-2c(O)nc2ccccc12` it is 320 to 321 °C.
As for `O=C1C(=O)c2ccccc2C2=C1SCC1(CCN(C(=O)c3ccc(-n4cccn4)cc3)CC1)O2`, the figure is 299 to 300 °C.
For the compound `Cc1c(Cc2cccc(C(F)(F)F)c2)oc2c(-c3cccc(C(=O)NCC(N)=O)c3)cccc12`, the melting point was 194 to 195 °C.
As for `CC(C(=O)n1c(=O)oc2ccccc21)C(O)CCCl` (stereo not given), the figure is 116 to 117 °C; as for `CCOC(=O)c1cc2c(cn1)[nH]c1ccc(N)c(N3CCCCC3)c12`, 188 to 190 °C; as for `CC(=O)Nc1ncsc1C`, 62 to 64 °C.
The figure for `Fc1ccc(C(=C2SCCCS2)c2ccc(F)cc2)cc1` is 169 to 171 °C.
The figure for `C[C@@H]1Cc2ccsc2[C@H](C)N1CCNC(=O)c1cccs1` (relative stereo) is 111 to 113 °C.
For `O=C1C(CCO)Oc2cc(F)ccc2N1Cc1cccc(Cl)c1` (stereo not given), the melting point lay in the range of 79 to 82 °C.
The figure for `CC(C)(C)CNc1nnc(-c2ccccc2)c2ccccc12` is 216 °C.
The figure for `Cc1nn(C)c(C)c1-c1cccc(-n2c(N)nc3ccccc32)c1` is 198 to 200 °C.
As for `CCc1cc(NC(C)=O)c(C=O)c(CC)n1`, the figure is 91 to 92 °C; as for `COc1cc2c(cc1OC)-c1c(-c3nc(-c4ccccc4)no3)c(-c3cc(C)c(O)c(C)c3)c(C)n1C(C)C2` (racemic), 203 to 206 °C.
`C[C@@H]1N(C(=O)OC(C)(C)C)C(=O)C[C@]1(C)O` had a melting point of 122 to 125 °C.
As for `C[C@@H](O[C@H]1CCCN(Cc2n[nH]c(=O)[nH]2)[C@H]1c1ccccc1)c1cccc(Cl)c1`, the figure is 164 to 165 °C.
The figure for `Cc1ccccc1C(=O)NCC(C)O` (stereo not given) is 78 to 81 °C.

Source of the values: a melting point compilation (Tetko et al.; mined from patent text by program, amines drawn as free bases though some values may be those of a salt).
